Source: patent US20230113802A1, “COMPOSITION AND METHOD TO PREPARE LONG-ACTING INJECTABLE SUSPENSION CONTAINING MULTIPLE CANCER DRUGS” (University of Washington, priority 2020, published 2023)
Where two headings read alike, the source gives them in different places. Marks after values point to notes of the source that are not given here.

What was measured:
[1] = Pharmacokinetic study of GT DcNP vs CrEL drug combination in mice (Example 1); format: in vivo, BALB/c mice; conditions: GT 50/5 mg/kg IV; for AUC(0-t) / Cmax / t1/2apparent: plasma; for AUC(0-t): iv
Method: Mice were administered with either a CrEL drug combination or GT DcNP intravenously with doses of 50/5 mg/kg GT. […] Each group had three animals and each animal was bled once only. Retro-orbital blood collection in this study was a terminal procedure and animals were under anesthesia at the time of bleeding. After blood collection, mice were euthanized by CO2 overdose followed by cervical dislocation as the secondary method of euthanasia. Drugs in plasma were extracted and analyzed by LC-MS/MS as described below.
A liquid-liquid extraction was used to extract drugs from plasma or tissue homogenates. […] Samples were spiked by internal standards (see below) followed by the addition of acetonitrile. […] The dried samples were reconstituted in 20% methanol and 80% water in 50 μL.
Drugs were quantified by a Shimadzu HPLC system coupled to a 3200 QTRAP mass spectrometer (Applied Biosystems, Grand Island, N.Y.). The HPLC system consisted of two Shimadzu LC-20A pumps, a DGU-20A5 degasser, and a Shimadzu SIL-20AC HT autosampler. The mass spectrometer was equipped with an electrospray ionization (ESI) TurbolonSpray source. The system was operated with Analyst software, version 1.5.2 (ABSciex, Framingham, Mass.).
Chromatographic separation of drugs was achieved using a Synergi column (100×2.0 mm; 4-μm particle size) with an inline C8 guard column (4.0×2.0 mm) (Phenomenex, Torrance, Calif.). An ammonium acetate buffer/reagent alcohol gradient was used to separate components. Analytes were monitored using multiple-reaction monitoring for positive ions.

[2] = Pharmacokinetics of venetoclax-zanubrutinib DcNP's versus free drug in mice; format: in vivo, BALB/C mice; conditions: for AUC: female, BALB/C, mouse, plasma; for time detectable in plasma: following administration of the nanoparticles
Source text: (§1) To quantify drug concentrations (both DcNP-bound and free drug), an extraction protocol was established to quantify venetoclax and zanubrutinib. In short, drug was solubilized by diluting the sample into ethyl acetate, liberating it from either the DcNP lipid matrix, mouse plasma, or both. Following centrifugation to remove organic material, the samples were dried with nitrogen gas, reconstituted in acetonitrile, and loaded onto an LC-MS/MS. Drug concentrations were quantified by comparing sample data with standard curves prepared from untreated mouse plasma spiked with known amounts of drug.
(§2) Separations were carried out on a Synergi column (100×2.0 mm) (Phenomenex, Torrance, USA). A C8 guard column (4.0×2.0 mm) was used (Phenomenex, USA). The separations were done under ambient temperature, and the flow rate was set to 0.55 ml/min. The mobile phase for the separations consisted of buffers A (water with 20 mM ammonium acetate) and B (acetonitrile). The single mobile phase ran for five minutes, and it consisted of 25% buffer A and 75% buffer B.
All animal procedures complied with and were approved by the University of Washington Institutional Animal Care and Use Committee. Female BALB/C mice were used, originally obtained from Charles River Laboratories (Wilmington, Mass.). Mice were kept under pathogen-free conditions, exposed to a 12 h light/dark cycle, and received food ad libitum. Three groups of three mice each were administered ABT-199 and BGB-3111: (1) the first group received a 180 μL intravenous injection of 600 μg ABT-199 and 600 μg BGB-3111 in 0.9% NaCl, 20 mM NaHCO3 buffer with trace DMSO and Cremophor EL as solubilizing agents, (2) the second group received an intravenous injection of ABT-199 and BGB-3111 DcNP's in equivalent volume and drug molar concentration as the first group, and (3) the third group received a subcutaneous injection of ABT-199 and BGB-3111 DcNP's in the inner right leg. Plasma was collected at select time points, then extracted and analyzed by HPLC-MS/MS using the previously established protocol to determine plasma concentrations of drug over time.

HL-60 cells = experiment: Leukemic cell uptake of free versus DcNP-associated drug, HL-60; format: cell-based, human; conditions: up to 4 hours
Method: (§3) FIGS. 13A-13D are a series of graphs showing the intracellular drug concentrations following incubation with free or DcNP-bound drug. Three leukemic cell lines were incubated with either free or DcNP-bound drug over four hours, and intracellular drug concentration was measured via LC-MS/MS. Both free drugs show relatively little drug uptake compared to the DcNP formulation. Free drug concentrations are roughly a quarter of the DcNP drug concentrations.
as §1, §2
(§4) HL-60 cells were cultured, counted, and aliquoted into multiple 1.5 mL Eppendorf tubes. A free drug solution of ABT-199 and BGB-3111 (1:1 w/w) was added to half of the tubes, while a DcNP solution of identical drug concentrations was added to the second half of tubes. The cells in the tubes were then allowed to incubate normally. At preselected time points, one incubation tube from each group was removed from the incubator, and the cells inside were washed twice with media to remove external drug and DcNP's. Cells were then lysed with acetonitrile, and drug concentrations were quantified according to the aforementioned extraction and LC-MS/MS protocol.

MOLT-4 cells = experiment: Leukemic cell uptake of free versus DcNP-associated drug, MOLT-4; format: cell-based, human
Method: as §3, §1, §2, §4

[3] = female, BALB/c, mouse, given in CrEL drug dosage form
[4] = female, BALB/c, mouse, given in DcNP dosage form
[5] = iv, 600 ug, intravenous free drug injection (600 μg each drug)
[6] = iv, 600 ug, intravenously administered DcNP's
[7] = sc, subcutaneous injection of DcNP's, plasma over one week
[8] = HL-60, incubation with free drug (1:1 w/w)
[9] = MOLT-4, incubation with free drug

AUC of subcutaneous DcNP's compared to intravenously delivered free drug (ratio) [2]	AUC [2, 5] [ng·h/mL]	AUC [2, 6] [ng·h/mL]	AUC [2, 7] [ng·h/mL]	time detectable in plasma [2]	peak intracellular drug concentration (HL-60 cells; HL-60, incubation with DcNP's) [ng/million cells]	peak intracellular drug concentration (HL-60 cells; [8]) [ng/million cells]	peak intracellular drug concentration (MOLT-4 cells; MOLT-4, incubation with DcNP's) [ng/million cells]	peak intracellular drug concentration (MOLT-4 cells; [9]) [ng/million cells]	Compound	increase in Cmax, GT DcNP compared to CrEL [1] [%]	AUC(0-t) [1, 3] [ng·h/mL]	AUC(0-t) [1, 4] [ng·h/mL]	Cmax ([1]; given in CrEL drug dosage form)	t1/2apparent ([1]; given in CrEL drug dosage form) [h]	Cmax ([1]; given in DcNP dosage form) [µg/mL]	t1/2apparent ([1]; given in DcNP dosage form) [h]	decrease in Cmax, GT DcNP compared to CrEL [1] [%]	Cmax ([1]; female, BALB/c, mouse, given in CrEL drug dosage form, read-out: Cmax) [µg/mL]
–	–	–	–	–	–	–	–	–	Nc1ccn([C@@H]2O[C@H](CO)[C@@H](O)C2(F)F)c(=O)n1 [Gemcitabine, 4-amino-1-[(2R,4R,5R)-3,3-difluoro-4-hydroxy-5-(hydroxymethyl)oxolan-2-yl]pyrimidin-2-one]	~10	15300	868000	165.12^b μg/mL	1.60	181.4	13.72	–	–
–	–	–	–	–	–	–	–	–	CC(=O)O[C@H]1C(=O)[C@@]2(C)[C@H]([C@H](OC(=O)c3ccccc3)[C@]3(O)C[C@H](OC(=O)[C@H](O)[C@@H](NC(=O)c4ccccc4)c4ccccc4)C(C)=C1C3(C)C)[C@]1(OC(C)=O)CO[C@@H]1C[C@@H]2O [Paclitaxel, [(1S,2S,3R,4S,7R,9S,10S,12R,15S)-4,12-diacetyloxy-15-[(2R,3S)-3-benzamido-2-hydroxy-3-phenylpropanoyl]oxy-1,9-dihydroxy-10,14,17,17-tetramethyl-11-oxo-6-oxatetracyclo[11.3.1.0^3,10.0^4,7]heptadec-13-en-2-yl] benzoate]	–	2490	9810	–	1.81	13.9	1.97	~21	17.7
over 2.62	88800	216000	232000	up to seven days	674	192	718	176	CC1(C)CCC(CN2CCN(c3ccc(C(=O)NS(=O)(=O)c4ccc(NCC5CCOCC5)c([N+](=O)[O-])c4)c(Oc4cnc5[nH]ccc5c4)c3)CC2)=C(c2ccc(Cl)cc2)C1 [Venetoclax, 4-[4-[[2-(4-chlorophenyl)-4,4-dimethylcyclohexen-1-yl]methyl]piperazin-1-yl]-N-[3-nitro-4-(oxan-4-ylmethylamino)phenyl]sulfonyl-2-(1H-pyrrolo[2,3-b]pyridin-5-yloxy)benzamide]	–	–	–	–	–	–	–	–	–
> 5.92	8300	11300	49000	less than one day	256	69	208	42	C=CC(=O)N1CCC([C@@H]2CCNc3c(C(N)=O)c(-c4ccc(Oc5ccccc5)cc4)nn32)CC1 [Zanubrutinib, (7S)-2-(4-phenoxyphenyl)-7-(1-prop-2-enoylpiperidin-4-yl)-4,5,6,7-tetrahydropyrazolo[1,5-a]pyrimidine-3-carboxamide]	–	–	–	–	–	–	–	–	–
